# Assays:
# [1] = Pharmacokinetics of compounds 1–11 in rat plasma (UPLC-TQ/MS) after oral administration of HYD and plus-minus Haizao/Gancao decoctions; assay type: in vivo, Wistar rats (PTU-induced model of hypothyroidism); settings: Wistar, model rats, n = 6, mean ± S.D.
# Method: Plasma samples (200 μL) and IS solution (50 μL, 1215 ng/mL for diphenhydramine, 476 ng/mL for chloromycetin) were added to an Eppendorf tube, and this mixture was extracted with methanol (550 μL) by shaking on a vortex-mixer for 2 min, and centrifuged for 10 min at 13,000 rpm. The contents were evaporated to dryness in a rotary evaporator at 37 °C. The residue was reconstituted in methanol (100 μL) and centrifuged (13,000 rpm for 10 min). The supernatant was transferred to an autosample vial and an aliquot of 5 μL was injected onto the UPLC-MS/MS system for analysis.
# The developed and validated method was used to evaluate the pharmacokinetics of the eleven compounds after oral administration of different fractions in […] (Figure 3). […] The pharmacokinetic parameters including half-life (T1/2), maximum plasma concentration (Cmax), time to reach the maximum concentration (Tmax), and area under concentration–time curve (AUC0~t) were calculated by a non-compartment model and are shown in Table 6.
# A considerable increase in thyroid stimulating hormone (TSH) and decrease in triiodothyronine (T3) and tetraiodothyronine (T4) in serum are considered to be markers of successful hypothyroid rat model preparation. PTU is the classic drug used to replicate hypothyroidism in rat models. It is generally thought that PTU can decrease the level of thyroid hormone in a hypothyroid rat model by inhibiting the activity of TPO [31, 32]. Model Wistar rats were administered PTU intragastrically at a dose of 10 mg/kg (QD) for 2 weeks to establish hypothyroidism. Serum from model rats was collected on the last day of PTU administration and the T3, T4 and TSH levels were determined using test kits. Wistar rats with a considerable increase in […] and a decrease in serum T3 and T4 were considered to have hypothyroidism and were selected for subsequent pharmacokinetic studies.
# For the pharmacokinetic studies, model Wistar rats were divided into six groups (n = 6 per group). Rats in the model HYD groups were administered HYD at a dose of 12 mL/kg intragastrically. In the model HYD-GC groups, HYD-GC (11 mL/kg) was administered. In the model HYD-HZ groups, HYD-HZ (11 mL/kg) was administered. In the model HYD-GC-HZ groups, HYD-GC-HZ (10 mL/kg) was administered. In the model GH groups, GH (2 mL/kg) was administered. In the model GC groups, GC (1 mL/kg) was administered. Blood samples were collected at specific time points before (0 min) and after oral administration (5, 10, 20, 40, 60, 120, 240, 480, 720, 1440 min). A total of 360 blood samples were collected. All blood samples were immediately centrifuged at 2500 rpm for 10 min to obtain plasma, which was labeled and frozen at −80 °C until analysis. Blank plasma was obtained from the rats without oral administration and was used to investigate the assay development and validation.
# To determine the pharmacokinetic parameters of compounds 1–11 in different groups, concentration–time data were analyzed by DAS 3.2 software (Mathematical Pharmacology Professional Committee of China, Shanghai, China, 2011). Data were expressed as the mean and standard deviation (S.D.) with triplicate measurements. The identification of significant differences between different groups was carried out using the Student’s t-test. A p value < 0.05 was considered statistically significant.
# CYP2C19 = system: CYP2C19; parameters: method as in PMID 21462897; settings: cited from earlier work
# CYP2C9 = system: CYP2C9; parameters: method as in PMID 21462897; settings: cited from earlier work
# CYP3A4 = system: CYP3A4; parameters: method as in PMID 21462897; settings: cited from earlier work
# [2] = 1 mL/kg, group GC (extract of Gancao), 1 mL/kg intragastrically
# [3] = 2 mL/kg, group GH (extract of Gancao and Haizao), 2 mL/kg intragastrically
# [4] = 11 mL/kg, group HYD-HZ (HYD minus Haizao), 11 mL/kg intragastrically
# [5] = 12 mL/kg, group HYD, 12 mL/kg intragastrically
# [6] = 10 mL/kg, group HYD-GH (HYD minus Gancao and Haizao; HYD-GC-HZ), 10 mL/kg intragastrically
# [7] = 11 mL/kg, group HYD-GC (HYD minus Gancao), 11 mL/kg intragastrically
Compound,"AUC(0-t) [1, 2] [ng·h/mL]","Cmax [1, 2] [ng/mL]","Tmax [1, 2] [min]","half-life [1, 2] [min]","AUC(0-t) [1, 3] [ng·h/mL]","Cmax [1, 3] [ng/mL]","Tmax [1, 3] [min]","half-life [1, 3] [min]","AUC(0-t) [1, 4] [ng·h/mL]","Cmax [1, 4] [ng/mL]","Tmax [1, 4] [min]","half-life [1, 4] [min]","AUC(0-t) [1, 5] [ng·h/mL]","Cmax [1, 5] [ng/mL]","Tmax [1, 5] [min]","half-life [1, 5] [min]","AUC(0-t) [1, 6] [ng·h/mL]","Cmax [1, 6] [ng/mL]","Tmax [1, 6] [min]","half-life [1, 6] [min]",further results
"O=C1C[C@@H](c2ccc(O[C@@H]3O[C@H](CO)[C@@H](O)[C@H](O)[C@H]3O)cc2)Oc2cc(O)ccc21 [Compound 1, liquiritin]",229 ± 119,147 ± 37.7,40.2,59.4 ± 20.4,2510 ± 814,254 ± 122,10.2,80.4 ± 88.8,987 ± 567,494 ± 165,18.6 ± 4.2,220 ± 198,1760 ± 287,1600 ± 595,11.4 ± 6.6,554 ± 351,–,–,–,–,–
"C[C@@H]1O[C@@H](O[C@H]2[C@H](Oc3cc(O)c4c(c3)O[C@H](c3ccc(O)cc3)CC4=O)O[C@H](CO)[C@@H](O)[C@@H]2O)[C@H](O)[C@H](O)[C@H]1O [Compound 2, naringin]",–,–,–,–,–,–,–,–,1060 ± 244,463 ± 194,30 ± 10.8,155 ± 121,912 ± 198,612 ± 200,10.2 ± 5.4,680 ± 292,565 ± 352,424 ± 188,9 ± 6,73.8 ± 9,"AUC(0-t) [1, 7]: 561 ± 278 ng·h/mL; Cmax [1, 7]: 271 ± 75.4 ng/mL; Tmax [1, 7]: 11.4 ± 4.2 min; half-life [1, 7]: 67.2 ± 16.8 min"
"CC1(C)[C@@H](O[C@H]2O[C@H](C(=O)O)[C@@H](O)[C@H](O)[C@H]2O[C@@H]2O[C@H](C(=O)O)[C@@H](O)[C@H](O)[C@H]2O)CC[C@]2(C)[C@H]3C(=O)C=C4[C@@H]5C[C@@](C)(C(=O)O)CC[C@]5(C)CC[C@@]4(C)[C@]3(C)CC[C@@H]12 [Compound 7, glycyrrhizic acid]",1760 ± 1430,607 ± 137,75 ± 30,268 ± 158,3600 ± 1840,1350 ± 322,33.6 ± 24,596 ± 533,587 ± 261,587 ± 261,40.2 ± 25.2,110 ± 109,1690 ± 639,1370 ± 712,17.5 ± 6,94.8 ± 60.6,–,–,–,–,–
"CC1(C)[C@@H](O)CC[C@]2(C)[C@H]3C(=O)C=C4[C@@H]5C[C@@](C)(C(=O)O)CC[C@]5(C)CC[C@@]4(C)[C@]3(C)CC[C@@H]12 [Compound 11, glycyrrhetinic acid]",10500,776 ± 184,600 ± 139,280 ± 320,22800,1250 ± 210,760 ± 353,116 ± 2.4,12700,756 ± 58.1,720,119 ± 1.8,9990 ± 1660,504 ± 101,560 ± 124,181 ± 141,–,–,–,–,inhibitory potencies on CYP2C19 enzyme activity (CYP2C19): up to 50%; inhibitory potencies on CYP2C9 enzyme activity (CYP2C9): up to 50%; inhibitory potencies on CYP3A4 enzyme activity (CYP3A4): up to 50%

# Continued, in another order:
"AUC(0-t) [1, 2] [ng·h/mL]","Cmax [1, 2] [ng/mL]","Tmax [1, 2] [min]","half-life [1, 2] [min]","AUC(0-t) [1, 3] [ng·h/mL]","Cmax [1, 3] [ng/mL]","Tmax [1, 3] [min]","half-life [1, 3] [min]","AUC(0-t) [1, 4] [ng·h/mL]","Cmax [1, 4] [ng/mL]","Tmax [1, 4] [min]","half-life [1, 4] [min]","AUC(0-t) [1, 5] [ng·h/mL]","Cmax [1, 5] [ng/mL]","Tmax [1, 5] [min]","half-life [1, 5] [min]","AUC(0-t) [1, 6] [ng·h/mL]","Cmax [1, 6] [ng/mL]","Tmax [1, 6] [min]","half-life [1, 6] [min]",Compound,further results
1000 ± 946,220 ± 47.4,150 ± 104,145 ± 94.2,681 ± 771,211 ± 70.3,90 ± 73.8,247 ± 224,2150 ± 629,276 ± 66.5,47.4 ± 94.8,236 ± 35.4,–,358 ± 91.9,165 ± 244,243 ± 46.2,–,–,–,–,"O=C1C[C@@H](c2ccc(O)cc2)Oc2cc(O)ccc21 [Compound 6, liquiritigenin]",–
–,–,–,–,–,–,–,–,649 ± 132,192 ± 54.5,48.6 ± 20.4,115 ± 105,819 ± 25.7,227 ± 57.8,19.8 ± 12.6,93.6 ± 61.2,786 ± 369,125 ± 35.6,6.6 ± 2.4,576 ± 637,"COc1c2ccoc2cc2oc(=O)ccc12 [Compound 8, bergapten]","AUC(0-t) [1, 7]: 470 ± 130 ng·h/mL; Cmax [1, 7]: 183 ± 47 ng/mL; Tmax [1, 7]: 36.6 ± 8.4 min; half-life [1, 7]: 70.2 ± 6 min"
–,–,–,–,–,–,–,–,2290 ± 55.5,322 ± 88.2,11.4 ± 4.2,971 ± 424,2870 ± 285,1000 ± 178,40.2,362 ± 117,1180 ± 539,311 ± 126,27.6 ± 22.2,196 ± 212,"COc1ccc(-c2cc(=O)c3c(OC)c(OC)c(OC)c(OC)c3o2)cc1OC [Compound 9, nobiletin]","AUC(0-t) [1, 7]: 2010 ± 1020 ng·h/mL; Cmax [1, 7]: 501 ± 183 ng/mL; Tmax [1, 7]: 53.4 ± 16.2 min; half-life [1, 7]: 272 ± 113 min"
–,–,–,–,–,–,–,–,295 ± 117,295 ± 117,36.6 ± 15,87 ± 66.6,748 ± 225,458 ± 184,36.6 ± 8.4,75 ± 1.8,98.5 ± 41,69.2 ± 25.6,31.8 ± 18.6,40.8 ± 29.4,"COc1ccc2ccc(=O)oc2c1CC=C(C)C [Compound 10, osthole]","AUC(0-t) [1, 7]: 205 ± 94.7 ng·h/mL; Cmax [1, 7]: 101 ± 31.9 ng/mL; Tmax [1, 7]: 23.4 ± 8.4 min; half-life [1, 7]: 92.4 ± 30.6 min"

# From PMC6155732, “Development of a UPLC-TQ/MS Approach for the Determination of Eleven Bioactive Components in Haizao Yuhu Decoction Plus-Minus Haizao and Gancao Drug Combination after Oral Administration in a Rat Model of Hypothyroidism” (Molecules : A Journal of Synthetic Chemistry and Natural …, 2016)
